Assay results published in patent US20240246966A1, “NEW PYRAZOLO[1,5-a] PYRIMIDINE DERIVATIVES AS SIGMA LIGANDS” (ACONDICIONAMIENTO TARRASENSE, priority 2021, published 2024).

Experiments:
Human σ2/TMEM97 receptor = biological target: T1, Human σ2/TMEM97 receptor (Homo sapiens, UniProt Q5BJF2); experiment: Binding assay to human σ2/TMEM97 receptor ([3H]-DTG, transfected HEK-293 membranes); settings: human σ2/TMEM97, [3H]-DTG 10 nM, binding expressed as Ki, read-out: Binding σ-2
T1 construct: expressed in transfected cells; host or cells: HEK-293
Method: Binding Assay to Human ρ2/TMEM97 Receptor
Transfected HEK-293 membranes (15 μg) were incubated with 10 nM [^3H]-1,3-Di-o-tolylguanidine ( DTG) in assay buffer containing Tris-HCl 50 mM at pH 8.0. NSB (non-specific binding) was measured by adding 10 μM haloperidol. The binding of the test compound was measured at either one concentration (% inhibition at 1 or 10 μM) or five different concentrations to determine affinity values (Ki). Plates were incubated at 25° C. for 120 minutes. After the incubation period, the reaction mix was transferred to MultiScreen HTS, FC plates (Millipore), filtered and washed 3 times with ice-cold 10 mM Tris-HCL (pH 8.0). Filters were dried and counted at approximately 40% efficiency in a MicroBeta scintillation counter (Perkin-Elmer) using EcoScint liquid scintillation cocktail.

Human σ1 Receptor = biological target: T2, Human σ1 Receptor (Homo sapiens, UniProt Q99720); experiment: Human σ1 receptor radioligand assay ([3H](+)-pentazocine, transfected HEK-293 membranes); settings: human σ1, [3H](+)-pentazocine 5 nM, binding expressed as Ki, read-out: Binding σ-1
T2 construct: expressed in transfected cells; host or cells: HEK-293
Method: Human σ1 Receptor Radioligand Assay
Transfected HEK-293 membranes (7 μg) were incubated with 5 nM of [^3H](+)-pentazocine in assay buffer containing Tris-HCl 50 mM at pH 8. NBS (non-specific binding) was measured by adding 10 μM haloperidol. The binding of the test compound was measured at either one concentration (% inhibition at 1 or 10 μM) or five different concentrations to determine affinity values (Ki). Plates were incubated at 37° C. for 120 minutes. After the incubation period, the reaction mix was then transferred to MultiScreen HTS, FC plates (Millipore), filtered and plates were washed 3 times with ice-cold 10 mM Tris-HCL (pH 7.4). Filters were dried and counted at approximately 40% efficiency in a MicroBeta scintillation counter (Perkin-Elmer) using EcoScint liquid scintillation cocktail.

sigma-2 (σ2) site = sigma-2 (σ2) site (Homo sapiens, UniProt Q5BJF2); settings: background statement; cited from earlier work
[1] = tested on: mechanical hypersensitivity in SNI mice; settings: spared nerve injury (SNI) mice model of neuropathic pain; cited from earlier work

T2 sequence (Q99720 whole entry): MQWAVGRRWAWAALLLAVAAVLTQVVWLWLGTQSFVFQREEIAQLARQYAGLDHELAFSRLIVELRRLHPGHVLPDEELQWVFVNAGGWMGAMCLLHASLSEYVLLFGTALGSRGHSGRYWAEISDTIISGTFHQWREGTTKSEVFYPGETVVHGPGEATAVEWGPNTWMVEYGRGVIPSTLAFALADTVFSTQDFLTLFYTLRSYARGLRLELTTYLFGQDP
T1 sequence (Q5BJF2 whole entry): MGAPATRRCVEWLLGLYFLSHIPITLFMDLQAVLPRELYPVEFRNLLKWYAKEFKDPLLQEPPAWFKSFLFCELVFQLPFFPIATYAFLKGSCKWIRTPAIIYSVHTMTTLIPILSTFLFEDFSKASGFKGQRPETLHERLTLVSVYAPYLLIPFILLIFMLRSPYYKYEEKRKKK
Sequence of sigma-2 (σ2) site (Q5BJF2 whole entry): as above

With `FC(F)(F)c1cc(-c2cnn3cc(CN4CC5(CCOCC5)C4)cnc23)ccn1` [Example 33, 2-((3-(2-(Trifluoromethyl)pyridin-4-yl)pyrazolo[1,5-a]pyrimidin-6-yl)methyl)-7-oxa-2-azaspiro[3.5]nonane] the Ki (Human σ2/TMEM97 receptor) was over 1000 nM and the Ki (Human σ1 Receptor) was under 100 nM.
Compound `COC1CCN(Cc2cnc3c(-c4ccnc(C(F)(F)F)c4)cnn3c2)CC1` [Example 34, 6-((4-Methoxypiperidin-1-yl)methyl)-3-(2-(trifluoromethyl)pyridin-4-yl)pyrazolo[1,5-a]pyrimidine] has a Ki (Human σ2/TMEM97 receptor) of over 1000 nM and a Ki (Human σ1 Receptor) of under 100 nM.
In the case of `FC(F)(F)c1cc(-c2cnn3cc(CN4CCN(C5COC5)CC4)cnc23)ccn1` [Example 35, 6-((4-(Oxetan-3-yl)piperazin-1-yl)methyl)-3-(2-(trifluoromethyl)pyridin-4-yl)pyrazolo[1,5-a]pyrimidine], the Ki (Human σ2/TMEM97 receptor) is reported as over 1000 nM and the Ki (Human σ1 Receptor) is reported as 500 to 1000 nM.
For `OC1CCN(Cc2cnc3c(-c4ccnc(C(F)(F)F)c4)cnn3c2)CC1` [Example 36, 1-((3-(2-(Trifluoromethyl)pyridin-4-yl)pyrazolo[1,5-a]pyrimidin-6-yl)methyl)piperidin-4-ol], the Ki (Human σ2/TMEM97 receptor) was over 1000 nM and the Ki (Human σ1 Receptor) was under 100 nM.
Compound `Cc1nc2c(-c3ccnc(C(F)(F)F)c3)cnn2c(C)c1CN1CCC2(CC1)COC2` [Example 37, 7-((5,7-Dimethyl-3-(2-(trifluoromethyl)pyridin-4-yl)pyrazolo[1,5-a]pyrimidin-6-yl)methyl)-2-oxa-7-azaspiro[3.5]nonane] has a Ki (Human σ2/TMEM97 receptor) of 500 to 1000 nM and a Ki (Human σ1 Receptor) of under 100 nM.
Work on `FC(F)(F)c1cc(-n2ccc3cc(CN4CCC5(CC4)COC5)cnc32)ccn1` [Example 38, 7-((1-(2-(Trifluoromethyl)pyridin-4-yl)-1H-pyrrolo[2,3-b]pyridin-5-yl)methyl)-2-oxa-7-azaspiro[3.5]nonane] yielded a Ki (Human σ2/TMEM97 receptor) of 100 to 500 nM and a Ki (Human σ1 Receptor) of under 100 nM.
Compound `COCC1CCN(Cc2cnc3c(ccn3-c3ccnc(C(F)(F)F)c3)c2)CC1` [Example 39, 5-((4-(Methoxymethyl)piperidin-1-yl)methyl)-1-(2-(trifluoromethyl)pyridin-4-yl)-1H-pyrrolo[2,3-b]pyridine] has a Ki (Human σ2/TMEM97 receptor) of 100 to 500 nM and a Ki (Human σ1 Receptor) of under 100 nM.
In the case of `CCOCC1CCN(Cc2cnc3c(ccn3-c3ccnc(C(F)(F)F)c3)c2)CC1` [Example 40, 5-((4-(Ethoxymethyl)piperidin-1-yl)methyl)-1-(2-(trifluoromethyl)pyridin-4-yl)-1H-pyrrolo[2,3-b]pyridine], the Ki (Human σ2/TMEM97 receptor) is reported as 100 to 500 nM and the Ki (Human σ1 Receptor) is reported as under 100 nM.
Compound `COCC1CCN(Cc2cnc3c(ccn3-c3ccc(C(F)(F)F)nc3)c2)CC1` [Example 41, 5-((4-(Methoxymethyl)piperidin-1-yl)methyl)-1-(6-(trifluoromethyl)pyridin-3-yl)-1H-pyrrolo[2,3-b]pyridine] has a Ki (Human σ2/TMEM97 receptor) of 100 to 500 nM and a Ki (Human σ1 Receptor) of under 100 nM.
In the case of `FC(F)(F)c1ccc(-n2ccc3cc(CN4CCC5(CC4)COC5)cnc32)cn1` [Example 42, 7-((1-(6-(Trifluoromethyl)pyridin-3-yl)-1H-pyrrolo[2,3-b]pyridin-5-yl)methyl)-2-oxa-7-azaspiro[3.5]nonane], the Ki (Human σ2/TMEM97 receptor) is reported as 100 to 500 nM and the Ki (Human σ1 Receptor) is reported as under 100 nM.
Compound `FC(F)(F)c1cc(-n2ccc3cc(CN4CCC5(CCOC5)CC4)cnc32)ccn1` [Example 43, 8-((1-(2-(Trifluoromethyl)pyridin-4-yl)-1H-pyrrolo[2,3-b]pyridin-5-yl)methyl)-2-oxa-8-azaspiro[4.5]decane] has a Ki (Human σ2/TMEM97 receptor) of 100 to 500 nM and a Ki (Human σ1 Receptor) of under 100 nM.
`COCC1CCN(Cc2cnc3c(ccn3-c3cccnc3C(F)(F)F)c2)CC1` [Example 44, 5-((4-(Methoxymethyl)piperidin-1-yl)methyl)-1-(2-(trifluoromethyl)pyridin-3-yl)-1H-pyrrolo[2,3-b]pyridine] gave a Ki (Human σ2/TMEM97 receptor) of 100 to 500 nM and a Ki (Human σ1 Receptor) of under 100 nM.
`FC(F)(F)c1ncccc1-n1ccc2cc(CN3CCC4(CCOCC4)CC3)cnc21` [Example 45, 9-((1-(2-(Trifluoromethyl)pyridin-3-yl)-1H-pyrrolo[2,3-b]pyridin-5-yl)methyl)-3-oxa-9-azaspiro[5.5]undecane] gave a Ki (Human σ2/TMEM97 receptor) of 100 to 500 nM and a Ki (Human σ1 Receptor) of under 100 nM.
Compound `FC(F)(F)c1cc(-n2ccc3cc(CN4CCC5(CCOCC5)CC4)cnc32)ccn1` [Example 46, 9-((1-(2-(Trifluoromethyl)pyridin-4-yl)-1H-pyrrolo[2,3-b]pyridin-5-yl)methyl)-3-oxa-9-azaspiro[5.5]undecane] has a Ki (Human σ2/TMEM97 receptor) of under 100 nM and a Ki (Human σ1 Receptor) of under 100 nM.
In the case of `FC(F)(F)c1cc(-n2ccc3cc(CN4CC5(CCOCC5)C4)cnc32)ccn1` [Example 47, 2-((1-(2-(Trifluoromethyl)53yridine-4-yl)-1H-pyrrolo[2,3-b]53yridine-5-yl)methyl)-7-oxa-2-azaspiro[3.5]nonane], the Ki (Human σ2/TMEM97 receptor) is reported as under 100 nM and the Ki (Human σ1 Receptor) is reported as under 100 nM.
With `FC(F)(F)c1ccc(-n2ccc3cc(CN4CCC5(CCOCC5)CC4)cnc32)cn1` [Example 48, 9-((1-(6-(Trifluoromethyl)pyridin-3-yl)-1H-pyrrolo[2,3-b]pyridin-5-yl)methyl)-3-oxa-9-azaspiro[5.5]undecane] the Ki (Human σ2/TMEM97 receptor) was 100 to 500 nM and the Ki (Human σ1 Receptor) was under 100 nM.
`COC1CCN(Cc2cnc3c(ccn3-c3ccnc(C(F)(F)F)c3)c2)CC1` [Example 49, 5-((4-Methoxypiperidin-1-yl)methyl)-1-(2-(trifluoromethyl)pyridin-4-yl)-1H-pyrrolo[2,3-b]pyridine] showed a Ki (Human σ2/TMEM97 receptor) of 500 to 1000 nM and a Ki (Human σ1 Receptor) of under 100 nM.
For `FC(F)(F)c1cc(-n2ccc3cc(CN4CCCOCC4)cnc32)ccn1` [Example 50, 4-((1-(2-(Trifluoromethyl)pyridin-4-yl)-1H-pyrrolo[2,3-b]pyridin-5-yl)methyl)-1,4-oxazepane], the Ki (Human σ2/TMEM97 receptor) was over 1000 nM and the Ki (Human σ1 Receptor) was under 100 nM.
`COC1CCN(Cc2cnc3c(ccn3-c3ccc(C(F)(F)F)nc3)c2)CC1` [Example 51, 5-((4-Methoxypiperidin-1-yl)methyl)-1-(6-(trifluoromethyl)pyridin-3-yl)-1H-pyrrolo[2,3-b]pyridine] showed a Ki (Human σ2/TMEM97 receptor) of 500 to 1000 nM and a Ki (Human σ1 Receptor) of under 100 nM.
With `FC(F)(F)c1ccc(-n2ccc3cc(CN4CCCOCC4)cnc32)cn1` [Example 52, 4-((1-(6-(Trifluoromethyl)pyridin-3-yl)-1H-pyrrolo[2,3-b]pyridin-5-yl)methyl)-1,4-oxazepane] the Ki (Human σ2/TMEM97 receptor) was 500 to 1000 nM and the Ki (Human σ1 Receptor) was under 100 nM.
In the case of `N#Cc1ncccc1-n1ccc2cc(CN3CCC4(CCOCC4)CC3)cnc21` [Example 53, 3-(5-((3-Oxa-9-azaspiro[5.5]undecan-9-yl)methyl)-1H-pyrrolo[2,3-b]pyridin-1-yl) picolinonitrile], the Ki (Human σ2/TMEM97 receptor) is reported as 500 to 1000 nM and the Ki (Human σ1 Receptor) is reported as under 100 nM.
Compound `FC(F)(F)c1ncccc1-n1ccc2cc(CN3CCC4(CCOC4)CC3)cnc21` [Example 54, 8-((1-(2-(Trifluoromethyl)pyridin-3-yl)-1H-pyrrolo[2,3-b]pyridin-5-yl)methyl)-2-oxa-8-azaspiro[4.5]decane] has a Ki (Human σ2/TMEM97 receptor) of 500 to 1000 nM and a Ki (Human σ1 Receptor) of under 100 nM.
With `FC(F)(F)c1ccc(-n2ccc3cc(CN4CC5(CCOCC5)C4)cnc32)cn1` [Example 55, 2-((1-(6-(Trifluoromethyl)pyridin-3-yl)-1H-pyrrolo[2,3-b]pyridin-5-yl)methyl)-7-oxa-2-azaspiro[3.5]nonane] the Ki (Human σ2/TMEM97 receptor) was 100 to 500 nM and the Ki (Human σ1 Receptor) was under 100 nM.
`FC(F)(F)c1ncccc1-n1ccc2cc(CN3CC4(CCOCC4)C3)cnc21` [Example 56, 2-((1-(2-(Trifluoromethyl)pyridin-3-yl)-1H-pyrrolo[2,3-b]pyridin-5-yl)methyl)-7-oxa-2-azaspiro[3.5]nonane] gave a Ki (Human σ2/TMEM97 receptor) of over 1000 nM and a Ki (Human σ1 Receptor) of under 100 nM.
`FC(F)(F)c1cc(-c2cnn3cc(CN4CCC5(CC4)COC5)ccc23)ccn1` [Example 57, 7-((3-(2-(Trifluoromethyl)pyridin-4-yl)pyrazolo[1,5-a]pyridin-6-yl)methyl)-2-oxa-7-azaspiro[3.5]nonane] showed a Ki (Human σ2/TMEM97 receptor) of 100 to 500 nM and a Ki (Human σ1 Receptor) of under 100 nM.
`FC(F)(F)c1cc(-n2ncc3cc(CN4CCC5(CC4)COC5)cnc32)ccn1` [Example 58, 7-((1-(2-(Trifluoromethyl)pyridin-4-yl)-1H-pyrazolo[3,4-b]pyridin-5-yl)methyl)-2-oxa-7-azaspiro[3.5]nonane] gave a Ki (Human σ2/TMEM97 receptor) of 100 to 500 nM and a Ki (Human σ1 Receptor) of under 100 nM.
Work on `OCC1(CO)CCN(Cc2cnc3c(-c4ccnc(C(F)(F)F)c4)cnn3c2)CC1` [Example 59, (1-((3-(2-(Trifluoromethyl)pyridin-4-yl)pyrazolo[1,5-a]pyrimidin-6-yl)methyl)piperidine-4,4-diyl)dimethanol] yielded a Ki (Human σ2/TMEM97 receptor) of over 1000 nM and a Ki (Human σ1 Receptor) of under 100 nM.
Work on `OCC1(CCl)CCN(Cc2cnc3c(-c4ccnc(C(F)(F)F)c4)cnn3c2)CC1` [Example 60, (4-(Chloromethyl)-1-((3-(2-(trifluoromethyl)pyridin-4-yl)pyrazolo[1,5-a]pyrimidin-6-yl)methyl)piperidin-4-yl)methanol] yielded a Ki (Human σ2/TMEM97 receptor) of 100 to 500 nM and a Ki (Human σ1 Receptor) of under 100 nM.
For (+)-SKF-10047, the “affinity for the sigma-2 (σ2) site” value (sigma-2 (σ2) site) is given as “micromolar affinity”.
For UKH-1114, the mechanical hypersensitivity [1] is given as “relieved mechanical hypersensitivity”.
